Assay results: patent US20220306695A1, “COMPSTATIN ANALOGUES AND THEIR MEDICAL USES” (priority 2019, published 2022)
Positions of bridges follow the written chain, without caps; N, C: chain ends. Non-standard residues stand in square brackets, D forms with d. Residues, ends and D or L forms follow the SMILES beside them. Trp(1-Me) = Cn1cc(C[C@H](N)C(=O)O)c2ccccc21; 2Nal = N[C@@H](Cc1ccc2ccccc2c1)C(=O)O; Sar = CNCC(=O)O

system: classical complement pathway; test: In vitro haemolysis assay (inhibition of classical complement pathway); assay type: cell-based, human; conditions: Table 3; human serum, sensitized sheep red blood cells; read-out: IC50[nM], in vitro analysis of inhibition of hemolysis
Summary of the method: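 Serially diluted compound (9 points) was preincubated 15 min at room temperature with diluted human serum, titrated per batch to give 70-90% maximal haemolysis, in Tris/casein buffer pH 7.4 with Mg2+/Ca2+. Antibody-sensitized sheep erythrocytes were then added for 30 min at 37° C, and the reaction was stopped with EDTA. Haemolysis was read at A405, with IC50 from 4PL fit.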

Structure (SMILES)	IC50 [nM]
CC[C@H](C)[C@H](NC(=O)[C@H](C)NC(=O)[C@H](CO)NC(C)=O)C(=O)N[C@H]1CSSC[C@@H](C(=O)N[C@H](C(=O)N[C@@H](CCC(=O)O)C(=O)NCC(N)=O)[C@@H](C)O)NC(=O)[C@H](CCCNC(=N)N)NC(=O)[C@H](Cc2c[nH]cn2)NC(=O)[C@H](CCC(=O)O)NC(=O)CNC(=O)[C@H](Cc2c[nH]c3ccccc23)NC(=O)[C@H](CC(=O)O)NC(=O)[C@H](CCC(N)=O)NC(=O)[C@H](Cc2c[nH]c3ccccc23)NC(=O)[C@H]([C@@H](C)CC)NC1=O [Compound 42] (Ac-SAICIWQDWGEHRCTEG-NH2; disulfide 4-14)	< 250
CC[C@H](C)[C@@H]1NC(=O)[C@@H](NC(=O)[C@H](Cc2ccccc2)NC(C)=O)CSSC[C@@H](C(=O)N[C@H](C(=O)NCC(=O)N[C@@H](C)C(=O)N[C@@H](CCC(=O)O)C(N)=O)[C@@H](C)O)NC(=O)[C@H](CCCNC(=N)N)NC(=O)[C@H](Cc2c[nH]cn2)NC(=O)[C@H](CCC(=O)O)NC(=O)CNC(=O)[C@H](Cc2c[nH]c3ccccc23)NC(=O)[C@H](CC(=O)O)NC(=O)[C@H](CCC(N)=O)NC(=O)[C@H](Cc2c[nH]c3ccccc23)NC1=O [Compound 43] (Ac-FCIWQDWGEHRCTGAE-NH2; disulfide 2-12)	< 100
CC[C@H](C)[C@H](NC(=O)[C@H](C)NC(=O)[C@H](CO)NC(=O)[C@H](CO)NC(=O)[C@H](CCC(=O)O)NC(C)=O)C(=O)N[C@H]1CSSC[C@@H](C(=O)N[C@H](C(N)=O)[C@@H](C)O)NC(=O)[C@H](CCCNC(=N)N)NC(=O)[C@H](Cc2c[nH]cn2)NC(=O)[C@H](C)NC(=O)CNC(=O)[C@H](Cc2c[nH]c3ccccc23)NC(=O)[C@H](CC(=O)O)NC(=O)[C@H](CCC(N)=O)NC(=O)[C@H](Cc2c[nH]c3ccccc23)NC(=O)[C@H]([C@@H](C)CC)NC1=O [Compound 46] (Ac-ESSAICIWQDWGAHRCT-NH2; disulfide 6-16)	< 100
CC[C@H](C)[C@H](NC(C)=O)C(=O)N[C@H]1CSSC[C@@H](C(=O)N[C@H](C(=O)NCC(=O)N[C@@H](C)C(=O)N[C@@H](CCC(=O)O)C(=O)N[C@@H](CO)C(N)=O)[C@@H](C)O)NC(=O)[C@H](CCCNC(=N)N)NC(=O)[C@H](Cc2c[nH]cn2)NC(=O)[C@H](C)NC(=O)CNC(=O)[C@H](Cc2c[nH]c3ccccc23)NC(=O)[C@H](CC(=O)O)NC(=O)[C@H](CCC(N)=O)NC(=O)[C@H](Cc2c[nH]c3ccccc23)NC(=O)[C@H]([C@@H](C)CC)NC1=O [Compound 47] (Ac-ICIWQDWGAHRCTGAES-NH2; disulfide 2-12)	< 100
CC[C@H](C)[C@@H]1NC(=O)[C@@H](NC(=O)[C@H](Cc2ccccc2)NC(=O)[C@H](C)NC(=O)[C@H](CO)NC(=O)CNC(=O)[C@H](CCC(=O)O)NC(C)=O)CSSC[C@@H](C(=O)N[C@@H](CCC(=O)O)C(=O)NCC(=O)N[C@@H](CCC(=O)O)C(N)=O)NC(=O)[C@H](CCCNC(=N)N)NC(=O)[C@H](Cc2c[nH]cn2)NC(=O)[C@H](CCC(=O)O)NC(=O)CNC(=O)[C@H](Cc2c[nH]c3ccccc23)NC(=O)[C@H](CC(=O)O)NC(=O)[C@H](CCC(N)=O)NC(=O)[C@H](Cc2cn(C)c3ccccc23)NC1=O [Compound 58] (Ac-EGSAFCI[Trp(1-Me)]QDWGEHRCEGE-NH2; disulfide 6-16)	< 100
CC[C@H](C)[C@@H]1NC(=O)[C@@H](NC(=O)[C@H](Cc2ccc(O)cc2)NC(=O)[C@H](C)NC(=O)[C@H](CO)NC(=O)CNC(=O)[C@H](CCC(=O)O)NC(C)=O)CSSC[C@@H](C(=O)N[C@H](C(=O)N[C@@H](CCC(=O)O)C(N)=O)[C@@H](C)O)NC(=O)[C@H](CCCNC(=N)N)NC(=O)[C@H](Cc2c[nH]cn2)NC(=O)[C@H](CCC(=O)O)NC(=O)CNC(=O)[C@H](Cc2c[nH]c3ccccc23)NC(=O)[C@H](CC(=O)O)NC(=O)[C@H](CCC(N)=O)NC(=O)[C@H](Cc2cn(C)c3ccccc23)NC1=O [Compound 59] (Ac-EGSAYCI[Trp(1-Me)]QDWGEHRCTE-NH2; disulfide 6-16)	< 100
CC[C@H](C)[C@@H]1NC(=O)[C@@H](NC(=O)[C@H](Cc2ccccc2)NC(C)=O)CSSC[C@@H](C(=O)N[C@H](C(=O)NCC(=O)N[C@@H](C)C(=O)N[C@@H](CCC(=O)O)C(=O)N[C@@H](CO)C(N)=O)[C@@H](C)O)NC(=O)[C@H](CCCNC(=N)N)NC(=O)[C@H](Cc2c[nH]cn2)NC(=O)[C@H](CCC(=O)O)NC(=O)CNC(=O)[C@H](Cc2c[nH]c3ccccc23)NC(=O)[C@H](CC(=O)O)NC(=O)[C@H](CCC(N)=O)NC(=O)[C@H](Cc2ccc3ccccc3c2)NC1=O [Compound 64] (Ac-FCI[2Nal]QDWGEHRCTGAES-NH2; disulfide 2-12)	< 100
CC[C@H](C)[C@@H]1NC(=O)[C@@H](NC(=O)[C@H](Cc2ccc(O)cc2)NC(C)=O)CSSC[C@@H](C(=O)N[C@H](C(=O)N[C@@H](CCC(=O)O)C(=O)N[C@@H](CO)C(=O)NCC(=O)N[C@@H](C)C(N)=O)[C@@H](C)O)NC(=O)[C@H](CCCNC(=N)N)NC(=O)[C@H](Cc2c[nH]cn2)NC(=O)[C@H](CCC(=O)O)NC(=O)CNC(=O)[C@H](Cc2c[nH]c3ccccc23)NC(=O)[C@H](CC(=O)O)NC(=O)[C@H](CCC(N)=O)NC(=O)[C@H](Cc2cn(C)c3ccccc23)NC1=O [Compound 69] (Ac-YCI[Trp(1-Me)]QDWGEHRCTESGA-NH2; disulfide 2-12)	< 100
CC[C@H](C)[C@@H]1NC(=O)[C@@H](NC(=O)[C@H](Cc2ccc(O)cc2)NC(=O)[C@H](C)NC(=O)[C@H](CO)NC(=O)CNC(=O)[C@H](CCC(=O)O)NC(C)=O)CSSC[C@@H](C(=O)N(C)CC(=O)N[C@@H](CCC(=O)O)C(N)=O)NC(=O)[C@H](CCCNC(=N)N)NC(=O)[C@H](Cc2c[nH]cn2)NC(=O)[C@H](CCC(=O)O)NC(=O)CNC(=O)[C@H](Cc2c[nH]c3ccccc23)NC(=O)[C@H](CCC(=O)O)NC(=O)[C@H](CCC(N)=O)NC(=O)[C@H](Cc2cn(C)c3ccccc23)NC1=O [Compound 70] (Ac-EGSAYCI[Trp(1-Me)]QEWGEHRC[Sar]E-NH2; disulfide 6-16)	< 100
CC[C@H](C)[C@@H]1NC(=O)[C@@H](NC(=O)[C@H](Cc2ccc(O)cc2)NC(=O)[C@H](CCC(=O)O)NC(=O)[C@H](CO)NC(C)=O)CSSC[C@@H](C(=O)N(C)CC(=O)N[C@@H](CCC(=O)O)C(=O)N[C@@H](C)C(N)=O)NC(=O)[C@H](CCCNC(=N)N)NC(=O)[C@H](Cc2c[nH]cn2)NC(=O)[C@H](CCC(=O)O)NC(=O)CNC(=O)[C@H](Cc2c[nH]c3ccccc23)NC(=O)[C@H](CC(=O)O)NC(=O)[C@H](CCC(N)=O)NC(=O)[C@H](Cc2cn(C)c3ccccc23)NC1=O [Compound 71] (Ac-SEYCI[Trp(1-Me)]QDWGEHRC[Sar]EA-NH2; disulfide 4-14)	< 100
CC[C@H](C)[C@@H]1NC(=O)[C@@H](NC(=O)[C@H](Cc2ccccc2)NC(=O)[C@H](CCC(=O)O)NC(=O)[C@H](CO)NC(C)=O)CSSC[C@@H](C(=O)N(C)CC(=O)N[C@@H](CCC(=O)O)C(=O)N[C@@H](C)C(N)=O)NC(=O)[C@H](CCCNC(=N)N)NC(=O)[C@H](Cc2c[nH]cn2)NC(=O)[C@H](CCC(=O)O)NC(=O)CNC(=O)[C@H](Cc2c[nH]c3ccccc23)NC(=O)[C@H](CCC(=O)O)NC(=O)[C@H](CCC(N)=O)NC(=O)[C@H](Cc2cn(C)c3ccccc23)NC1=O [Compound 83] (Ac-SEFCI[Trp(1-Me)]QEWGEHRC[Sar]EA-NH2; disulfide 4-14)	< 100
CC[C@H](C)[C@@H]1NC(=O)[C@@H](NC(=O)[C@H](Cc2ccccc2)NC(=O)[C@H](CCC(=O)O)NC(=O)[C@H](CO)NC(C)=O)CSSC[C@@H](C(=O)N[C@@H](CO)C(=O)N[C@@H](CCC(=O)O)C(=O)N[C@@H](C)C(N)=O)NC(=O)[C@H](CCCNC(=N)N)NC(=O)[C@H](Cc2c[nH]cn2)NC(=O)[C@H](CCC(=O)O)NC(=O)CNC(=O)[C@H](Cc2c[nH]c3ccccc23)NC(=O)[C@H](CC(=O)O)NC(=O)[C@H](CCC(N)=O)NC(=O)[C@H](Cc2cn(C)c3ccccc23)NC1=O [Compound 84] (Ac-SEFCI[Trp(1-Me)]QDWGEHRCSEA-NH2; disulfide 4-14)	< 100
CC[C@H](C)[C@@H]1NC(=O)[C@@H](NC(=O)[C@H](Cc2ccccc2)NC(=O)[C@H](CCC(=O)O)NC(C)=O)CSSC[C@@H](C(=O)N[C@@H](CCC(=O)O)C(=O)N[C@@H](CO)C(N)=O)NC(=O)[C@H](CCCNC(=N)N)NC(=O)[C@H](Cc2c[nH]cn2)NC(=O)[C@H](CCC(=O)O)NC(=O)CNC(=O)[C@H](Cc2c[nH]c3ccccc23)NC(=O)[C@H](CC(=O)O)NC(=O)[C@H](CCC(N)=O)NC(=O)[C@H](Cc2cn(C)c3ccccc23)NC1=O [Compound 85] (Ac-EFCI[Trp(1-Me)]QDWGEHRCES-NH2; disulfide 3-13)	< 100
CC[C@H](C)[C@@H]1NC(=O)[C@@H](NC(=O)[C@H](Cc2ccccc2)NC(=O)[C@H](CCC(=O)O)NC(=O)[C@H](CO)NC(C)=O)CSSC[C@@H](C(=O)N(C)CC(=O)N[C@@H](CCC(=O)O)C(=O)N[C@@H](C)C(N)=O)NC(=O)[C@H](CCCCN)NC(=O)[C@H](Cc2c[nH]cn2)NC(=O)[C@H](CCC(=O)O)NC(=O)CNC(=O)[C@H](Cc2c[nH]c3ccccc23)NC(=O)[C@H](CC(=O)O)NC(=O)[C@H](CCC(N)=O)NC(=O)[C@H](Cc2cn(C)c3ccccc23)NC1=O [Compound 86] (Ac-SEFCI[Trp(1-Me)]QDWGEHKC[Sar]EA-NH2; disulfide 4-14)	< 100
CC[C@H](C)[C@@H]1NC(=O)[C@@H](NC(=O)[C@H](Cc2ccccc2)NC(=O)[C@H](CCC(=O)O)NC(=O)CNC(C)=O)CSSC[C@@H](C(=O)N(C)CC(=O)N[C@@H](CCC(=O)O)C(=O)N[C@@H](C)C(N)=O)NC(=O)[C@H](CCCNC(=N)N)NC(=O)[C@H](Cc2c[nH]cn2)NC(=O)[C@H](CCC(=O)O)NC(=O)CNC(=O)[C@H](Cc2c[nH]c3ccccc23)NC(=O)[C@H](CC(=O)O)NC(=O)[C@H](CCC(N)=O)NC(=O)[C@H](Cc2cn(C)c3ccccc23)NC1=O [Compound 87] (Ac-GEFCI[Trp(1-Me)]QDWGEHRC[Sar]EA-NH2; disulfide 4-14)	< 100
